COC(=O)Nc1nc2ccc(C(=O)c3ccc(F)cc3)cc2[nH]1
Conditions	solubility (mole fraction)
in 1,4-dioxane, 288.15 K	8.29e-05
in 1,4-dioxane, 293.15 K	9.83e-05
in 1,4-dioxane, 298.15 K	0.00012
in 1,4-dioxane, 303.15 K	0.00014
in 1,4-dioxane, 308.15 K	0.000168
in 1,4-dioxane, 313.15 K	0.000195
in 1,4-dioxane, 318.15 K	0.000229
in 1,4-dioxane, 323.15 K	0.000266
in 1,4-dioxane, 328.15 K	0.000308
in 1,4-dioxane, 333.15 K	0.000357
in 2-butanone, 283.15 K	0.000232
in 2-butanone, 288.15 K	0.000305
in 2-butanone, 293.15 K	0.000401
in 2-butanone, 298.15 K	0.000516
in 2-butanone, 303.15 K	0.000682
in 2-butanone, 308.15 K	0.000837
in 2-butanone, 313.15 K	0.00104
in 2-butanone, 318.15 K	0.00132
in 2-butanone, 323.15 K	0.0017
in 2-butanone, 328.15 K	0.00204
in 2-butanone, 333.15 K	0.00248
in DMF, 283.15 K	0.000572
in DMF, 288.15 K	0.000708
in DMF, 293.15 K	0.000821
in DMF, 298.15 K	0.00098
in DMF, 303.15 K	0.00116
in DMF, 308.15 K	0.00138
in DMF, 313.15 K	0.00162
in DMF, 318.15 K	0.00188
in DMF, 323.15 K	0.0022
in DMF, 328.15 K	0.00259
in DMF, 333.15 K	0.00309
in DMSO, 293.15 K	0.00191
in DMSO, 298.15 K	0.00221
in DMSO, 303.15 K	0.00261
in DMSO, 308.15 K	0.00303
in DMSO, 313.15 K	0.00358
in DMSO, 318.15 K	0.00419
in DMSO, 323.15 K	0.00481
in DMSO, 328.15 K	0.00548
in DMSO, 333.15 K	0.00627
in NMP, 283.15 K	0.00078
in NMP, 288.15 K	0.000918
in NMP, 293.15 K	0.00103
in NMP, 298.15 K	0.00122
in NMP, 303.15 K	0.00142
in NMP, 308.15 K	0.00162
in NMP, 313.15 K	0.00188
in NMP, 318.15 K	0.00215
in NMP, 323.15 K	0.00252
in NMP, 328.15 K	0.00308
in NMP, 333.15 K	0.00373
in ethanol, 283.15 K	1.03e-06
in ethanol, 288.15 K	1.56e-06
in ethanol, 293.15 K	2.41e-06
in ethanol, 298.15 K	3.74e-06
in ethanol, 303.15 K	5.44e-06
in ethanol, 308.15 K	7.73e-06
in ethanol, 313.15 K	1.01e-05
in ethanol, 318.15 K	1.41e-05
in ethanol, 323.15 K	1.94e-05
in ethanol, 328.15 K	2.55e-05
in ethanol, 333.15 K	3.33e-05
in isobutanol, 283.15 K	1.2e-05
in isobutanol, 288.15 K	1.62e-05
in isobutanol, 293.15 K	2.13e-05
in isobutanol, 298.15 K	2.73e-05
in isobutanol, 303.15 K	3.55e-05
in isobutanol, 308.15 K	4.61e-05
in isobutanol, 313.15 K	5.88e-05
in isobutanol, 318.15 K	7.44e-05
in isobutanol, 323.15 K	9.39e-05
in isobutanol, 328.15 K	0.000116
in isobutanol, 333.15 K	0.000135
in isopropanol, 283.15 K	6.58e-06
in isopropanol, 288.15 K	7.97e-06
in isopropanol, 293.15 K	9.58e-06
in isopropanol, 298.15 K	1.14e-05
in isopropanol, 303.15 K	1.34e-05
in isopropanol, 308.15 K	1.63e-05
in isopropanol, 313.15 K	1.93e-05
in isopropanol, 318.15 K	2.22e-05
in isopropanol, 323.15 K	2.65e-05
in isopropanol, 328.15 K	3.12e-05
in isopropanol, 333.15 K	3.56e-05
in methanol, 283.15 K	7.08e-07
in methanol, 288.15 K	1.05e-06
in methanol, 293.15 K	1.57e-06
in methanol, 298.15 K	2.25e-06
in methanol, 303.15 K	3.15e-06
in methanol, 308.15 K	4.41e-06
in methanol, 313.15 K	6.31e-06
in methanol, 318.15 K	8.49e-06
in methanol, 323.15 K	1.17e-05
in methanol, 328.15 K	1.59e-05
in methanol, 333.15 K	2.14e-05
in n-butanol, 283.15 K	1.93e-05
in n-butanol, 288.15 K	2.58e-05
in n-butanol, 293.15 K	3.46e-05
in n-butanol, 298.15 K	4.36e-05
in n-butanol, 303.15 K	5.64e-05
in n-butanol, 308.15 K	7.1e-05
in n-butanol, 313.15 K	8.77e-05
in n-butanol, 318.15 K	0.000111
in n-butanol, 323.15 K	0.000141
in n-butanol, 328.15 K	0.000173
in n-butanol, 333.15 K	0.000218
in n-propanol, 283.15 K	7.7e-06
in n-propanol, 288.15 K	1e-05
in n-propanol, 293.15 K	1.32e-05
in n-propanol, 298.15 K	1.69e-05
in n-propanol, 303.15 K	2.16e-05
in n-propanol, 308.15 K	2.64e-05
in n-propanol, 313.15 K	3.39e-05
in n-propanol, 318.15 K	4.31e-05
in n-propanol, 323.15 K	5.53e-05
in n-propanol, 328.15 K	6.78e-05
in n-propanol, 333.15 K	8.09e-05
in water, 283.15 K	1.03e-07
in water, 288.15 K	1.31e-07
in water, 293.15 K	1.67e-07
in water, 298.15 K	2.12e-07
in water, 303.15 K	2.6e-07
in water, 308.15 K	3.23e-07
in water, 313.15 K	4e-07
in water, 318.15 K	4.96e-07
in water, 323.15 K	6.07e-07
in water, 328.15 K	7.33e-07
in water, 333.15 K	8.81e-07
